Assay results reported in ChEMBL document CHEMBL2057100, “The optimization of pyridazinone series of glucan synthase inhibitors” (Bioorg Med Chem Lett, 2012).
pIC50: −log10 of the molar value. ≈ marks a conversion by molar mass, not a printed value.

Legend:
Beta-1,3-glucan synthase = molecular target: T1, Beta-1,3-glucan synthase (Candida albicans, UniProt O13383); assay: Inhibition of 1,3-beta-D-glucan synthase in Candida albicans BWP17 membranes; assay type: cell membranes
T1 sequence (O13383 whole entry): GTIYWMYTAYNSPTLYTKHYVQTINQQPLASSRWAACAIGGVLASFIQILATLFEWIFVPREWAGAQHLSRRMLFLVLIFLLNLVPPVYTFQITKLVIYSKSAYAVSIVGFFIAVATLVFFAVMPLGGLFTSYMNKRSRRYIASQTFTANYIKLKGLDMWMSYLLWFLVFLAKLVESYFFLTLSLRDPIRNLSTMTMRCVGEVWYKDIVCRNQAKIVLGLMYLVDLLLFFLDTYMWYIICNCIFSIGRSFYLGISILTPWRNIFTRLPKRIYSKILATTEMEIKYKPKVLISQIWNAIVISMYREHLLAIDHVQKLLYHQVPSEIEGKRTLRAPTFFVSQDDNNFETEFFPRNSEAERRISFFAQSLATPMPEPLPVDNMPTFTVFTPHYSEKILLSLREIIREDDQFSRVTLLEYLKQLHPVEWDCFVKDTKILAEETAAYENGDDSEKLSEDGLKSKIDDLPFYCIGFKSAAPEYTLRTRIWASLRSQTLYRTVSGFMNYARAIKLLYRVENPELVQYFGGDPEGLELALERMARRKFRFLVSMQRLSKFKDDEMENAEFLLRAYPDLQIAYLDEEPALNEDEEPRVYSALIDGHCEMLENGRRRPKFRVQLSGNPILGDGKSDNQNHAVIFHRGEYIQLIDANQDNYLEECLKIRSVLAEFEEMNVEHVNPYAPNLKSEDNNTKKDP

Nakaseomyces glabratus = assay: Antifungal activity against Candida glabrata C624 by broth dilution method; assay type: functional; settings: read-out: MIC100
Candida albicans = assay: Antifungal activity against Candida albicans C693 by broth dilution method; assay type: functional; settings: read-out: MIC100
[1] = AUC (0 to 6 hrs) in rat at 10 mg/kg, po; assay type: ADME, organism-based, Plasma; design: time < 6 hr, dose 10 mg/kg, route oral; settings: plasma
Aspergillus fumigatus = assay: Antifungal activity against Aspergillus fumigatus ND158 by broth dilution method; assay type: functional; settings: read-out: MEC
[2] = Cmax in rat at 10 mg/kg, po; assay type: ADME, organism-based; design: dose 10 mg/kg, route oral; settings: in vivo

Structure (SMILES) | pIC50 (Beta-1,3-glucan synthase) | MIC (Nakaseomyces glabratus) [µg/mL] | MIC (Candida albicans) [µg/mL] | AUC(0-t) at 6 h [1] [ng·h/mL] | Cmax [2] [ng/mL] | minimal effective concentration (Aspergillus fumigatus) [µg/mL]
O=c1c(OC2CCCC2)c(N2CCN(S(=O)(=O)Cc3ccc(Cl)cc3)CC2)cnn1-c1cccc(Cl)c1 | 6.85 | 0.31 (≈ 0.55 µM) | 0.63 (≈ 1.12 µM) | – | – | –
O=c1c(OC2CCOCC2)c(N2CCN(S(=O)(=O)Cc3ccccc3)CC2)cnn1-c1cccc(Cl)c1 | 6.04 | 0.02 (≈ 0.0367 µM) | 3.13 (≈ 5.74 µM) | – | – | –
CC1(COc2c(N3CCN(S(=O)(=O)Cc4cccc(N)c4)CC3)cnn(-c3cccc(Cl)c3)c2=O)CC1 | 7.13 | 0.13 (≈ 0.239 µM) | 0.52 (≈ 0.956 µM) | 5700 | 1400 | 1.04
O=c1c(OC2CCCC2)c(N2CCN(S(=O)(=O)Cc3ccccc3)CC2)cnn1-c1cc(F)cc(F)c1 | 7.25 | 0.4 (≈ 0.754 µM) | 0.39 (≈ 0.735 µM) | – | – | –
O=c1c(OC2CCCCC2)c(N2CCN(S(=O)(=O)Cc3ccccc3)CC2)cnn1-c1cccc(Cl)c1 | 5.83 | < 0.02 | 0.78 (≈ 1.44 µM) | – | – | –
O=c1c(OC2CCCC2)c(N2CCN(S(=O)(=O)Cc3ccncc3)CC2)cnn1-c1cc(F)cc(F)c1 | 6.25 | 0.2 (≈ 0.376 µM) | 3.1 (≈ 5.83 µM) | 20 | – | –
CN(C)c1ccc(CS(=O)(=O)N2CCN(c3cnn(-c4cccc(Cl)c4)c(=O)c3OCC3(C)CC3)CC2)cc1 | 7.06 | 0.06 (≈ 0.105 µM) | 0.26 (≈ 0.454 µM) | – | – | 16.7
CC1(COc2c(N3CCN(S(=O)(=O)Cc4cccnc4N)CC3)cnn(-c3cccc(Cl)c3)c2=O)CC1 | 6.62 | 0.06 (≈ 0.11 µM) | 2.08 (≈ 3.82 µM) | 5200 | 1700 | 8.4
O=c1c(OC2CCCC2)c(N2CCN(S(=O)(=O)Cc3ccc(F)cc3)CC2)cnn1-c1cccc(Cl)c1 | 6.96 | 0.05 (≈ 0.0914 µM) | 1.56 (≈ 2.85 µM) | – | – | –
O=c1c(OC2CCCC2)c(N2CCN(S(=O)(=O)Cc3ccccc3)CC2)cnn1-c1cccc(Cl)c1 | 6.42 | < 0.02 | 0.39 (≈ 0.737 µM) | – | – | –
CC1(COc2c(N3CCN(S(=O)(=O)Cc4ccc(N)cc4)CC3)cnn(-c3cccc(Cl)c3)c2=O)CC1 | 6.96 | 0.26 (≈ 0.478 µM) | 1.04 (≈ 1.91 µM) | 8100 | 1900 | 4.2
O=c1c(OC2CCCC2)c(N2CCN(S(=O)(=O)Cc3cccc(Cl)c3)CC2)cnn1-c1cccc(Cl)c1 | 6.80 | 0.05 (≈ 0.0887 µM) | 1.56 (≈ 2.77 µM) | – | – | –
CC(C)(O)CCOc1c(N2CCN(S(=O)(=O)Cc3ccccc3)CC2)cnn(-c2cc(F)cc(F)c2)c1=O | 6.25 | 0.78 (≈ 1.42 µM) | 25 (≈ 45.6 µM) | – | – | –

More lines, main results first:

pIC50 (Beta-1,3-glucan synthase) | MIC (Nakaseomyces glabratus) [µg/mL] | MIC (Candida albicans) [µg/mL] | AUC(0-t) at 6 h [1] [ng·h/mL] | Cmax [2] [ng/mL] | Structure (SMILES) | minimal effective concentration (Aspergillus fumigatus) [µg/mL]
6.90 | 0.13 (≈ 0.232 µM) | 1.04 (≈ 1.86 µM) | 14500 | 3500 | Cc1cc(CS(=O)(=O)N2CCN(c3cnn(-c4cc(F)cc(F)c4)c(=O)c3OCC3(C)CC3)CC2)ccc1N | 4.2
7.75 | 0.78 (≈ 1.4 µM) | 0.2 (≈ 0.358 µM) | – | – | CNc1ccc(CS(=O)(=O)N2CCN(c3cnn(-c4cccc(Cl)c4)c(=O)c3OCC3(C)CC3)CC2)cc1 | > 50
5.86 | 0.78 (≈ 1.35 µM) | 12.5 (≈ 21.6 µM) | – | – | O=c1c(OC2CCc3cccnc32)c(N2CCN(S(=O)(=O)Cc3ccccc3)CC2)cnn1-c1cccc(Cl)c1 (centres undefined) | –
6.20 | 0.52 (≈ 0.85 µM) | > 33 | 640 | 440 | CC1(COc2c(N3CCN(S(=O)(=O)Cc4ccc(N)c(C(F)(F)F)c4)CC3)cnn(-c3cccc(Cl)c3)c2=O)CC1 | > 33
7.14 | 0.2 (≈ 0.366 µM) | 0.39 (≈ 0.713 µM) | – | – | O=c1c(OC2CCCC2)c(N2CCN(S(=O)(=O)Cc3ccccc3F)CC2)cnn1-c1cccc(Cl)c1 | –
6.89 | 0.13 (≈ 0.238 µM) | 0.52 (≈ 0.953 µM) | 5700 | – | Nc1cccc(CS(=O)(=O)N2CCN(c3cnn(-c4cc(F)cc(F)c4)c(=O)c3OC3CCCC3)CC2)c1 | –
7.14 | < 0.02 | 0.1 (≈ 0.182 µM) | – | – | O=c1c(OC2CCCC2)c(N2CCN(S(=O)(=O)Cc3cccc(F)c3)CC2)cnn1-c1cc(F)cc(F)c1 | –
